Data on two compounds can be found in patent EP3323415A1, “TREATMENT OF NEURODEGENERATIVE DISEASES” (Institut du Cerveau et de la Moelle Épinière-ICM, priority 2016, dated 2018).

SMILES strings stand for the structures.

The subject of this test is midbrain DA (TH^+) neurons. The test can be described thus: Spontaneous dopaminergic (DA) cell death model in midbrain cultures. The test is classed as cell-based, Wistar rat. Conditions: chronic treatments for 10 days. On the procedure: Animals were treated in accordance with the Guide for the Care and Use of Laboratory Animals (National Research Council, 1996), European Directive 86/609, and the guidelines of the local institutional animal care and use committee. Cultures were prepared from the ventral mesencephalon of gestational age 15.5 Wistar rat embryos (Janvier Breeding Center, Le Genest St Isle, France). Dissociated cells in suspension obtained by mechanical trituration of midbrain tissue pieces were seeded at a density of 1.2-1.5 10^5 cells/ cm^2 onto tissue culture supports precoated with 1 mg/ml polyethylenimine diluted in borate buffer pH 8.3 as described (Michel PP, et al., J Neurochem. 1997 Oct;69(4):1499-507). The cultures were then maintained in N5 medium supplemented with 5 mM glucose, 5% horse serum, and 0.5% fetal calf serum, except for the first 3 days in vitro (DIV), when the concentration of fetal calf serum was 2.5% to favor initial maturation of the cultures (Guerreiro S, et al., Mol Pharmacol. 2008 Oct;74(4):980-9). They were fed daily by replacing 70% of the medium. […]
We used a model system in which DA cell loss was spontaneous. […] For the spontaneous dopaminergic cell death model, TH^+ neurons were counted while for the neuro-inflammation model, the number of microglial cells was evaluated. […]

`CC(=O)OCOC(=O)c1ccc[n+]([C@@H]2O[C@H](COP(=O)(O)OP(=O)(OCOC(C)=O)OC[C@H]3O[C@@H](n4cnc5c(N)ncnc54)[C@H](OP(=O)(OCOC(C)=O)OCOC(C)=O)[C@@H]3O)[C@@H](O)[C@H]2O)c1` (stereo partly drawn) [compound 2, 1-((2R,3R,4S,5R)-5-((((((acetoxymethoxy)(((2R,3R,4R,5R)-5-(6-amino-9H-purin-9-yl)-4-((bis(acetoxymethoxy)phosphoryl)oxy)-3-hydroxytetrahydrofuran-2-yl)methoxy)phosphoryl)oxy)(hydroxy)phosphoryl)oxy)methyl)-3,4-dihydroxytetrahydrofuran-2-yl)-3-((acetoxymethoxy)carbonyl)pyridin-1-ium] gave an optimal neuroprotective concentrations of 1 µM.

On to `Nc1ncnc2c1ncn2[C@@H]1O[C@H](COP(=O)(O)OP(=O)(O)OC[C@H]2O[C@@H]([n+]3cccc(C(=O)[O-])c3)[C@H](O)[C@@H]2O)[C@@H](O)[C@H]1OP(=O)(O)O` [compound 1, 1-[(2R,3R,4S,5R)-5-[[[[(2R,3R,4R,5R)-5-(6-aminopurin-9-yl)-3-hydroxy-4-phosphonooxyoxolan-2-yl]methoxy-hydroxyphosphoryl]oxy-hydroxyphosphoryl]oxymethyl]-3,4-dihydroxyoxolan-2-yl]pyridin-1-ium-3-carboxylic acid], for which the optimal neuroprotective concentrations worked out at 30 µM.
